Measurements published in US20060287528A1, “Novel crystalline forms of a phosphoric acid salt of a dipeptidyl peptidase-iv inhibitor” (priority 2003, published 2006).

Legend:
Solubility in water = type: physicochemical
[1] = Solid-state stability and interconversion of the crystalline forms; type: physicochemical; conditions: for temperature range in which the polymorph is the stable form (enantiotropic transition temperature): Form I / Form III enantiotropic pair, transition about 34° C.

Row | solubility (Solubility in water) [mg/mL] | temperature range in which the polymorph is the stable form (enantiotropic transition temperature) [1] | time for conversion to anhydrate Form I or Form III or mixtures thereof ([1]; at about 45° C., form is metastable) | Structure (SMILES)
1 | > 120 | above 34 °C |  | N[C@@H](CC(=O)N1CCn2c(nnc2C(F)(F)F)C1)Cc1cc(F)c(F)cc1F [anhydrate Form I]
2 |  | below 34 °C |  | N[C@@H](CC(=O)N1CCn2c(nnc2C(F)(F)F)C1)Cc1cc(F)c(F)cc1F [anhydrate Form III]
3 |  |  | about 2 h | N[C@@H](CC(=O)N1CCn2c(nnc2C(F)(F)F)C1)Cc1cc(F)c(F)cc1F [desolvated anhydrate Form II]
